From PubChem BioAssay AID330 (DTP/NCI, 2004)
“And” between values parts separate entries of the source, which are not always exact repeats. Identical values can stand only once. Toxic doses and inconclusive results are not listed. How the source made its calls: active means survival T/C of 150% or more; inactive means T/C below 125% in these data.

Test system: P388 leukemia ip, CD2F1 mice, survival T/C
Assay: NCI In Vivo Anticancer Drug Screen. Data for tumor model P388 Leukemia (intraperitoneal) in CD2F1 (CDF1) mice
Conditions: endpoint: median survival time, higher = longer survival
Procedure, shortened: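 Mice carrying the transplanted tumor received test compound or vehicle. Survival was recorded in each group, and the value is the treated-group measurement divided by that of the vehicle-treated control group.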

[1] = dose: 50.0 mg/kg/injection, schedule: Q01DX009 (ip), vehicle: saline with Tween-80
[2] = dose: 100.0 mg/kg/injection, schedule: Q01DX009 (ip), vehicle: saline with Tween-80
[3] = dose: 200.0 mg/kg/injection, schedule: Q01DX009 (ip), vehicle: saline with Tween-80
[4] = dose: 6.25 mg/kg/injection, schedule: Q01DX009 (ip), vehicle: Klucel (hydroxypropylcellulose) (HPC)
[5] = dose: 12.5 mg/kg/injection, schedule: Q01DX009 (ip), vehicle: Klucel (hydroxypropylcellulose) (HPC)
[6] = dose: 25.0 mg/kg/injection, schedule: Q01DX009 (ip), vehicle: Klucel (hydroxypropylcellulose) (HPC)
[7] = dose: 50.0 mg/kg/injection, schedule: Q01DX009 (ip), vehicle: Klucel (hydroxypropylcellulose) (HPC)
[8] = dose: 100.0 mg/kg/injection, schedule: Q01DX009 (ip), vehicle: Klucel (hydroxypropylcellulose) (HPC)
[9] = dose: 200.0 mg/kg/injection, schedule: Q01DX009 (ip), vehicle: Klucel (hydroxypropylcellulose) (HPC)
[10] = dose: 50.0 mg/kg/injection, schedule: Q01DX005 (ip), vehicle: saline
[11] = dose: 100.0 mg/kg/injection, schedule: Q01DX005 (ip), vehicle: saline
[12] = dose: 50.0 mg/kg/injection, schedule: Q01DX009 (ip), vehicle: saline
[13] = dose: 50.0 mg/kg/injection, schedule: Q01DX005 (ip), vehicle: saline with Tween-80
[14] = dose: 100.0 mg/kg/injection, schedule: Q01DX005 (ip), vehicle: saline with Tween-80
[15] = dose: 200.0 mg/kg/injection, schedule: Q01DX005 (ip), vehicle: saline with Tween-80

Measured: T/C

ClCC(Br)CBr (configuration not stated)
inactive: dose: 37.5 mg/kg/injection, schedule: Q01DX009 (ip), vehicle: saline with Tween-80 104 % of control | dose: 37.5 mg/kg/injection, schedule: Q04DX003 (ip), vehicle: saline with Tween-80 100 % of control | dose: 50.0 mg/kg/injection, schedule: Q01DX009 (ip), vehicle: saline sonified 105 % of control | dose: 75.0 mg/kg/injection, schedule: Q04DX003 (ip), vehicle: saline with Tween-80 90 % of control | dose: 150.0 mg/kg/injection, schedule: Q01DX009 (ip), vehicle: saline with Tween-80 104 % of control | dose: 150.0 mg/kg/injection, schedule: Q04DX003 (ip), vehicle: saline with Tween-80 95 % of control

O=C(CN1C(=O)c2ccccc2C1=O)NC(Cc1ccccc1)C(=O)O (configuration not stated)
inactive: [1] 95 % of control | [2] 105 % of control | [3] 102 % of control | dose: 400.0 mg/kg/injection, schedule: Q01DX009 (ip), vehicle: saline with Tween-80 95 % of control

[Cl][Cu][Cl].c1ccc2[nH]cnc2c1.c1ccc2[nH]cnc2c1
inactive: [4] 113 % of control | [5] 104 % of control | [6] 100 % of control

O=C(Cc1nc2ccccc2[nH]1)N/N=C1\SCC(=O)N1C1CCCCC1
inactive: dose: 100.0 mg/kg/injection, schedule: Q01DX001 (ip), vehicle: Klucel (hydroxypropylcellulose) (HPC) 98 % of control | dose: 200.0 mg/kg/injection, schedule: Q01DX001 (ip), vehicle: Klucel (hydroxypropylcellulose) (HPC) 100 % of control | dose: 400.0 mg/kg/injection, schedule: Q01DX001 (ip), vehicle: Klucel (hydroxypropylcellulose) (HPC) 99 % of control

N#CC1C(=O)NC(=O)C(C#N)C1C1C(=O)NC2CCCCC21 (configuration not stated)
inactive: [1] 114 % of control | [2] 99 % of control | [3] 112 % of control

CSc1ccc(NC(=O)n2nnc3ccccc32)cc1
inactive: [4] 103 % of control and 106 % of control | [5] 102 % of control and 110 % of control | [6] 100 % of control and 111 % of control | [7] 105 % of control and 109 % of control and 120 % of control | [8] 105 % of control and 117 % of control and 124 % of control | [9] 106 % of control and 97 % of control

COC(=O)c1nc(Cl)[nH]c1CC#N
inactive: [10] 103 % of control | [11] 112 % of control | dose: 200.0 mg/kg/injection, schedule: Q01DX005 (ip), vehicle: saline 105 % of control

CNNCCCCC(=O)NC(C)C
inactive: [6] 97 % of control | [7] 98 % of control | [8] 97 % of control

CCCNC1(N(C)C)N=C(N(C)C)N=C(N(C)C)O1 (configuration not stated)
inactive: [10] 102 % of control | [11] 95 % of control

COc1c2occc2c(OC)c2/c(=N/O)cc(C)oc12
inactive: [12] 107 % of control | dose: 100.0 mg/kg/injection, schedule: Q01DX009 (ip), vehicle: saline 98 % of control | dose: 200.0 mg/kg/injection, schedule: Q01DX009 (ip), vehicle: saline 97 % of control

Clc1ccc(CN2Cc3ccc4cccnc4c3OC2c2ccccn2)cc1Cl (configuration not stated)
inactive: [7] 100 % of control | [8] 101 % of control | [9] 101 % of control

C[n+]1c2ccccc2nc2c(N)cc(N)cc21
inactive: dose: 31.3 mg/kg/injection, schedule: Q04DX003 (ip), vehicle: saline sonified 104 % of control | dose: 83.0 mg/kg/injection, schedule: Q04DX003 (ip), vehicle: saline with Tween-80 113 % of control | dose: 125.0 mg/kg/injection, schedule: Q04DX003 (ip), vehicle: saline with Tween-80 122 % of control | dose: 188.0 mg/kg/injection, schedule: Q04DX003 (ip), vehicle: saline with Tween-80 100 % of control

c1ccc2c(c1)-c1nc-2nc2[nH]c(nc3nc(nc4[nH]c(n1)c1ccccc41)-c1ccccc1-3)c1cc3c4nc5nc(nc6[nH]c(nc7nc(nc([nH]4)c3cc21)-c1ccccc1-7)c1ccccc61)-c1ccccc1-5
inactive: dose: 60.0 mg/kg/injection, schedule: Q01DX005 (ip), vehicle: Klucel (hydroxypropylcellulose) (HPC) 106 % of control | dose: 120.0 mg/kg/injection, schedule: Q01DX005 (ip), vehicle: Klucel (hydroxypropylcellulose) (HPC) 100 % of control | dose: 240.0 mg/kg/injection, schedule: Q01DX005 (ip), vehicle: Klucel (hydroxypropylcellulose) (HPC) 97 % of control

Cc1cccc(C)c1NC(=O)C(=O)/C(=C(\N)c1ccccc1)c1ccccc1
inactive: [13] 101 % of control | [14] 94 % of control | [15] 90 % of control

Nc1nc2nc[nH]c(=O)c2[nH]1
inactive: dose: 6.25 mg/kg/injection, schedule: Q01DX005 (ip), vehicle: saline with Tween-80 99 % of control | dose: 12.5 mg/kg/injection, schedule: Q01DX005 (ip), vehicle: saline with Tween-80 99 % of control | dose: 25.0 mg/kg/injection, schedule: Q01DX005 (ip), vehicle: saline with Tween-80 102 % of control and 106 % of control | [13] 102 % of control

O=C1C=C(c2ccccc2)S(=O)(=O)c2cc(O)ccc21
inactive: [13] 119 % of control | [14] 114 % of control | [15] 110 % of control

Cc1cc(C)c[n+]([O-])c1
inactive: dose: 12.5 mg/kg/injection, schedule: Q01DX009 (ip), vehicle: saline 111 % of control | dose: 25.0 mg/kg/injection, schedule: Q01DX009 (ip), vehicle: saline 111 % of control | [12] 111 % of control

O=C(NC(Cc1ccc(OC(=O)OCc2ccccc2)cc1)C(=O)O)OCc1ccccc1 (configuration not stated)
inactive: [13] 99 % of control | [14] 90 % of control | [15] 101 % of control

O=C(/C=C/c1ccccc1)Oc1cc([N+](=O)[O-])cc([N+](=O)[O-])c1
inactive: dose: 100.0 mg/kg/injection, schedule: Q04DX002 (ip), vehicle: saline with Tween-80 112 % of control | dose: 200.0 mg/kg/injection, schedule: Q04DX002 (ip), vehicle: saline with Tween-80 105 % of control

CSC(SC)(C(=O)O)c1cc(-c2c(Cl)cccc2Cl)no1
inactive: dose: 60.0 mg/kg/injection, schedule: Q01DX005 (ip), vehicle: saline with Tween-80 93 % of control | dose: 120.0 mg/kg/injection, schedule: Q01DX005 (ip), vehicle: saline with Tween-80 102 % of control

C=C1C(=O)O[C@H]2[C@@H]3O[C@@H]3C[C@@H]12
inactive: dose: 1.56 mg/kg/injection, schedule: Q01DX009 (ip), vehicle: water 105 % of control | dose: 3.13 mg/kg/injection, schedule: Q01DX009 (ip), vehicle: water 97 % of control | dose: 6.25 mg/kg/injection, schedule: Q01DX009 (ip), vehicle: water 99 % of control | dose: 12.5 mg/kg/injection, schedule: Q01DX009 (ip), vehicle: water 100 % of control | dose: 25.0 mg/kg/injection, schedule: Q01DX009 (ip), vehicle: water 109 % of control

C1CCNCC1.COc1ccccc1C(=O)[CH-]C(=O)C(F)(F)F.COc1ccccc1C(=O)[CH-]C(=O)C(F)(F)F.COc1ccccc1C(=O)[CH-]C(=O)C(F)(F)F.COc1ccccc1C(=O)[CH-]C(=O)C(F)(F)F.[Eu+3]
inactive: [7] 94 % of control | [9] 91 % of control

Cc1nc2ccc(O)cc2c(C(=O)O)c1C(=O)O
inactive: [13] 100 % of control | [14] 96 % of control | [15] 104 % of control

CCOC(=O)C(CCBr)SC (configuration not stated)
inactive: dose: 25.0 mg/kg/injection, schedule: Q01DX009 (ip), vehicle: saline with Tween-80 99 % of control | [1] 100 % of control | [2] 99 % of control

NC(N)=Nc1nc2ccccc2o1
inactive: dose: 50.0 mg/kg/injection, schedule: Q04DX003 (ip), vehicle: Klucel (hydroxypropylcellulose) (HPC) 90 % of control | dose: 100.0 mg/kg/injection, schedule: Q04DX003 (ip), vehicle: Klucel (hydroxypropylcellulose) (HPC) 100 % of control | dose: 200.0 mg/kg/injection, schedule: Q04DX003 (ip), vehicle: Klucel (hydroxypropylcellulose) (HPC) 100 % of control
